# Data as given in article PMC10340464, “Identification of a Novel SSTR3 Full Agonist for the Treatment of Nonfunctioning Pituitary Adenomas” (Cancers, 2023).
# Tests used:
# [1] = tested on: SSTR2-tGFP; assay: Receptor internalization in U2OS-transfected cells (SSTR2-tGFP); format: cell-based, human; details: 3 h, high-content imaging, n = 3, method: percentage of activity relative to SST28 10^−6 M
# Method: (§1) Compounds were tested at five concentrations (10^−5, 10^−6, 10^−7, 10^−8, 10^−9 M) in comparison to untreated cells.
# (§2) SST agonists were added to U2OS recombinant cell lines in OptiMeM medium (Life technologies 51985-034, Monza, Italy) for 3 h (SSTR2, SSTR3) or 7 h (SSTR5) (n = 3). After formaldehyde fixation, nuclei were stained using DAPI (2 µg/mL), and the fluorescence was measured with BD Pathway 855 High-Content Bioimager from Becton Dickinson. The receptor internalization was calculated using AttoVision 1.6 Software. Approximately 500 cells per field were analyzed. […]
# (§3) (Invitrogen, Carlsbad, CA). Stable transfectants were selected in the presence of 500 µg/ml G-418. […]
# (§4) % picric acid in phosphate buﬀer (pH 6.9) for 30 minutes at room temperature (RT). […]
# (§5) 3.2. U2OS human cell lines transfected with human receptors (SSTR2-tGFP, SSTR3-tGFP,
# (§6) Compounds were tested at ﬁve d iﬀerent concentrations (10-5, 10-6, 10-7, 10-8, 10^-9 M) in comparison to untreated cells.
# (§7) U2OS recombinant cell lines were obtained from Innoprot (Derio, Spain). […] Nuclei were stained using DAPI (2 μg/ml) and the ﬂuorescence was measured using a BD Pathway 855 High-Content Bioimager from Becton Dickinson. The receptor internalization was calculated using AttoVision Software. […]
# (§8) Agonist activity of test compounds was calculated relatively to positive control
# [2] = tested on: SSTR5-tGFP; assay: Receptor internalization in U2OS-transfected cells (SSTR5-tGFP); format: cell-based, human; details: 7 h, high-content imaging, n = 3, method: percentage of activity relative to SST28 10^−6 M
# Method: as §1, §2, §3, §4, §5, §6, §7, §8
# [3] = molecular target: T1, SSTR2 (Homo sapiens, UniProt P30874); assay: SSTR2 phosphorylation, Western blot with phosphosite-specific antibodies, HEK293-transfected; format: cell-based; details: HEK293 stably expressing SSTR2, agonist 5 min 37 °C
# T1 construct: expressed in transfected cells
# T1 sequence (P30874 whole entry): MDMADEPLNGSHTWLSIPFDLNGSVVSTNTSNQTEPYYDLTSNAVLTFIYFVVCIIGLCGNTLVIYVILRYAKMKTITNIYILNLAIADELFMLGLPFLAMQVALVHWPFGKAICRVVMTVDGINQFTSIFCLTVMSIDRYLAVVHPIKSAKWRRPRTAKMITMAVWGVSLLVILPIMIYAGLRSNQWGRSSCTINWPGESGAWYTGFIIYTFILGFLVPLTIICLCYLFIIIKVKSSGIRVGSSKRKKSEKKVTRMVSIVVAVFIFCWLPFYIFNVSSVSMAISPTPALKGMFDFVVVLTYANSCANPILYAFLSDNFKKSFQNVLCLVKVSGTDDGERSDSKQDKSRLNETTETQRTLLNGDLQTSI
# Method: Western blot analysis was performed as previously described.
# Next, the activation of human SSTRs induced by SSAs was tested by Western blot using phosphosite-specific antibodies directed against the following residues: S341/pS343 for SSTR2; S337/T341 for SSTR3; T333 for SSTR5 [31].
# 4.1. Western blot analysis
# Western blot analysis was performed as previously described.7–9 Brieﬂy, HEK293 cells stably expressing the human somatostatin receptors were seeded onto poly-L-lysine-coated 60 mm dishes and grown to 90 % confluency. […]
# PierceTM HA epitope tag antibody beads (Thermo Scientific, Rockford, USA) were used to enrich HA-tagged somatostatin receptors or wheat germ lectin-agarose beads for no-tagged somatostatin receptors. To elute proteins from the beads, the samples were incubated in SDS sample buffer for 20 min at 60°C. Supernatants were separated from the beads, loaded on 8% SDS polyacrylamide gels and immunoblotted onto nitrocellulose membranes afterwards. After blocking, membranes were incubated with phosphorylation state-speciﬁc somatostatin receptor antibodies: pS337/pT341-SST3 (7TM0357A), […]
# Antibodies GmbH, Jena, Germany) at a dilution of 1:1000 at 4°C overnight. Membranes were incubated in HRP-linked secondary antibody for 2 hours, followed by detection using a chemiluminescence system (90 mM p-coumaric-acid, 250 mM luminol, 30% […]
# according to the manufacturer’s instructions.
# [4] = tested on: GHRH-stimulated GH release, primary cultures of rat anterior pituitary cells; assay: Inhibition of GHRH-induced GH release in rat pituitary primary cell culture; format: cell-based; details: rat GHRH 3x10^-9 M, 3 h 37 °C, GH by ELISA
# [5] = tested on: δ (DOP) (h); assay: Single-dose binding assay on δ opioid receptor; set-up: species or system human; details: 10^−5 M
# [6] = tested on: NOP (ORL1) (h); assay: Single-dose binding assay on NOP receptor; set-up: species or system human; details: 10^−5 M
# [7] = tested on: NFPAs of MENX (homozygous mutant) rats; assay: In vivo efficacy against endogenous NFPAs in MENX rats; set-up: species or system rat; details: 12.5 mg/kg s.c. every 14 days, 56 days
# Method: Tumor monitoring in rats was conducted using MRI at day 0 (pretreatment) and every 14 days post-treatment (days 14, 28, 42, 56). MRI was performed on a 7T preclinical scanner (Bruker BioSpin MRI GmbH, Ettlingen, Germany) using previously published procedures suitable to visualize the rat pituitary tumors. In the T2 weighted datasets, regions of interest (ROIs) were manually segmented around the adenomas in every slice where they appeared; tumor volumes were finally calculated from the data (area of particular ROIs and slice thickness) using an implemented algorithm in Osirix/Horos (Pixmeo SARL/Horos Project) as previously described.
# RNA was extracted using RNeasy Mini Kit (Qiagen, Cluj-Napoca, Romania) following the manufacturer’s instructions. Total RNA concentration and purity was assessed using Nanodrop 2000 spectrophotometer (Thermo Scientific, Waltham, MA, USA). Total RNA was retrotranscribed using random hexamer primers and the cDNA First Strand Synthesis kit (Thermo Scientific). Details regarding the quantitative PCR (qPCR) procedure used to determine the absolute expression levels of the different somatostatin receptor genes (Sstr1-5) have been previously reported. Specific sets of primers for these genes have been previously validated and reported. To control for the amount of RNA and for the efficiency of the retrotranscription reaction, mRNA copy numbers of the different transcripts analyzed were adjusted by β-actin (ACTB) expression (used as housekeeping gene).
# Ki67-positive tumor cells per 100,000 µm^2 were counted under the microscope in 3 independent areas for each tumor sample.
# Linear mixed-effects (LME) models were applied for longitudinal analysis of tumor volume growth, with absolute tumor volume at day 0 used for scaling subsequent measurements of each individual, as previously reported. Relative volumes were transformed by natural logarithms for use as model outcomes in order to meet the normal distributional assumptions. Linear and quadratic growth predictors and interactions were considered for significance testing, performed by the F-test, with results presented as the mean ± standard error of the mean (SEM). Statistical significance between two series of data was determined by one-way ANOVA. A p value < 0.05 was considered statistically significant.
smiles,measurement,setting,value
"COc1cc2cccc(OC)c2cc1C[C@H]1NC(=O)[C@H](Cc2ccc(O)cc2)NC(=O)[C@@H]2C[C@@H](OC(=O)NCCN)CN2C(=O)[C@H](Cc2ccccc2)NC(=O)[C@H](Cc2ccc(OCc3ccccc3)cc2)NC(=O)[C@H](CCCCN)NC1=O [ITF2984, Cyclo[Tyr(Bn)-Phe-Pro(4-OCONH(CH2)2NH2)-Tyr-3,8-diMeONal-Lys]]","Receptor internalization in U2OS-transfected cells, SSTR2, at 10^−5 M",[1]; 10^−5 M,37.3
same,"Receptor internalization in U2OS-transfected cells, SSTR2, at 10^−6 M (value in brackets)",[1]; 10^−6 M,35.9
same,"Receptor internalization in U2OS-transfected cells, SSTR5, at 10^−5 M",[2]; 10^−5 M,34.6
same,"Receptor internalization in U2OS-transfected cells, SSTR5, at 10^−6 M (value in brackets)",[2]; 10^−6 M,42.0
same,Phosphorylation SSTR sites (HEK293-transfected): SSTR2—PS341/S343,[3],++
same,GH release (inhibition ≅ 1 nM),[4],50%
same,Percentage of inhibition of opioid receptor δ (DOP) (h) (agonist),[5],79%
same,Percentage of inhibition of opioid receptor NOP (ORL1) (h) (agonist),[6],61%
same,"change in number of Ki67-positive cells versus placebo, female rats",[7]; female MENX rats,−57%
same,"tumor volume during treatment (MRI), female rats","[7]; female MENX rats, MRI every 14 days",only a slight increase in tumor volume
same,"number of Ki67-positive cells per area, average, female rats","[7]; female MENX rats, placebo 312","134 cells per 100,000 mm^2"
same,"change in number of Ki67-positive cells versus placebo, male rats",[7]; male MENX rats,−33.5%
same,"number of Ki67-positive cells per area, average, male rats","[7]; male MENX rats, placebo 375","250 cells per 100,000 mm^2"
